Results: patent publication US20040029965A1, “Formulations for reducing or eliminating toxicity of enviromental hormones containing ursodeoxycholic acid” (priority 2000, published 2004)

What was measured:
Assay type in all cases: in vivo
C57B1/6J mice [1] = experiment: Feed uptake of mice after a single subcutaneous injection of TCDD; parameters: unit not given here
Procedure: (§1) Male C57B1/6J mice of 5 weeks old having the average weight of 18-22 g which had been bred in CRJ (Charles River in Japan) were purchased and used in this example as experimental animals. Those mice were acclimated under the constant breeding condition, i.e. the temperature of 24±1° C., the humidity of 60±10% and the light and darkness cycle of 12 hours, for one week and thereafter, utilized in the experiment.
The Experimental animals were supplied with Purina powdered feed (purchased from Hae Eun Trade) and supplied with water ad libitum. All the animals were weighed twice a week during experimentation.
(§2) 2,3,7,8-tetrachlorodibenzo-p-dioxin (TCDD) dissolved in toluene (purity of 95% or more as a result of gas chromatography analysis), manufactured by Chem. Services Inc. in USA, was volatilized with nitrogen to obtain powder. The obtained powder was dissolved in a mixed solvent containing acetone and corn oil with a volume ratio of 1:6. The resulting solution each containing 110, 27.5 and 6.9 μg/kg of TCDD was subcutaneously injected to mice at a volume of 5 ml per body weight. […] The mice were supplied with the feed from 10 days before (pre-administration) to 60 days after administration of TCDD (post-administration).
(§3) The results are expressed as Mean±Standard Deviation values. For statistical analysis of the body weight, feed and water uptake, biochemical findings, hematological findings and the weight of organ in an acute toxicity test, verification was performed by one way analysis of variance (ANOVA) in case of equal distribution. In case significance was recognized in ANOVA, the Student's t-test was performed in the levels of p<0.05 and p<0.01.

C57B1/6J mice [2] = experiment: Blood (serum) biochemical changes in mice by a single subcutaneous injection of TCDD
Procedure: as §1, §2
(§4) Upon completion of the experiment for 60 days, the experimental animals were fasted for 24 hours and anesthetized with ether. Then, they were abdominally incised and blood was gathered from abdominal vena cava. They were sacrificed by the release of blood. Liver, kidneys, testes and epididymides were extracted and all the extracted organs were weighed. Only the testes were separately kept and observed under optical and electron microscopes. For biochemical finding test, serum was separated from blood with a centrifuge and the separated serum was analyzed with an automated blood biochemical analyzer, Dimension (Dupont, USA). Blood was put to another blood gathering bottle and then, analyzed with an automated blood cell analyzer, Celldyn (Abbott, USA).
as §3
For biochemical findings in the serum, the levels of glucose (GLU), GOT, GPT, Triglyceride (TG), high density lipoprotein (HDL-C), low density lipoprotein (LDL-C) and alkaline phosphatase (ALP) in serum were measured and the results are shown in the following.

C57B1/6J mice [3] = experiment: Johnsen's score of the testis tissue (level of spermatogenesis); settings: score 10 to 1
Procedure: as §2, §4
The extracted testes were fixed in 10% neutralized formalin buffer for 24 hours and washed with the flowing water. It was subsequently dehydrated with ethanol and cleared with xylene and then, embedded with paraffin. It was sectioned with microtome (microm is HM 440E) to a thickness of 2-3 μm and then, double stained with hematoxylin and eosin to observe under an optical microscope.
For evaluation of the level of spermatogenesis, Johnsen's score was determined from 10 to 1 based on the presence or absence of principal cells arranged according to maturation of spermatogenesis. The basis of Johnsen's score in testes was the following:
10: Perfect spermatogenesis having many sperms, organization of embryonic epithelial cells with a constant thickness, and opened lumen
9: Despite many sperms, significant separation of embryonic epithelial cells from the basement membrane and disruption thereof, or loss of lumen
8: Presence of 5 to less than 10 sperms in the section
7: Many sperm cells without sperms
6: 5 to less than 10 sperm cells without sperms
5: Several or many spermatocytes without sperms and sperm cells
4: Less than 5 spermatocytes without sperms and sperm cells
3: Presence of only spermatogonia as reproductive cells
2: Presence of only Sertoli cells without any reproductive cells
1: No cells in the section of seminiferous tubules

C57B1/6J mice [4] = experiment: Electron microscopy of testes (cellular microstructures); settings: TCDD 27.5 μg/kg alone; FIG. 9
Procedure: as §2
as §4, with “(Abbott, USA). […]” for “(Abbott, USA).”

## Clc1cc2c(cc1Cl)Oc1cc(Cl)c(Cl)cc1O2 [TCDD, 2,3,7,8-tetrachlorodibenzo-p-dioxin]
C57B1/6J mice [1]; TCDD 6.9 μg/kg alone, 10 days
  feed uptake: 4.76 ± 0.74
C57B1/6J mice [1]; TCDD 6.9 μg/kg alone, 20 days
  feed uptake: 4.33 ± 0.84
C57B1/6J mice [1]; TCDD 6.9 μg/kg alone, 30 days
  feed uptake: 4.97 ± 1.00
C57B1/6J mice [1]; TCDD 6.9 μg/kg alone, 40 days
  feed uptake: 4.97 ± 1.00
C57B1/6J mice [1]; TCDD 6.9 μg/kg alone, 50 days
  feed uptake: 3.51 ± 0.31
C57B1/6J mice [1]; TCDD 6.9 μg/kg alone, 60 days
  feed uptake: 3.28 ± 1.56
C57B1/6J mice [1]; TCDD 27.5 μg/kg alone, 10 days
  feed uptake: 3.86 ± 0.87
C57B1/6J mice [1]; TCDD 27.5 μg/kg alone, 20 days
  feed uptake: 3.17 ± 1.68
C57B1/6J mice [1]; TCDD 27.5 μg/kg alone, 30 days
  feed uptake: 2.37 ± 0.37
C57B1/6J mice [1]; TCDD 27.5 μg/kg alone, 40 days
  feed uptake: 1.90 ± 0.27
C57B1/6J mice [1]; TCDD 27.5 μg/kg alone, 50 days
  feed uptake: 1.50 ± 0.16
C57B1/6J mice [1]; TCDD 27.5 μg/kg alone, 60 days
  feed uptake: 1.58 ± 0.32
C57B1/6J mice [1]; TCDD 110.0 μg/kg alone, 10 days
  feed uptake: 4.19 ± 0.96
C57B1/6J mice [1]; TCDD 110.0 μg/kg alone, 20 days
  feed uptake: 3.21 ± 1.13
C57B1/6J mice [1]; TCDD 110.0 μg/kg alone, 30 days
  feed uptake: 3.88 ± 0.96
C57B1/6J mice [1]; TCDD 110.0 μg/kg alone, 40 days
  feed uptake: 2.23 ± 0.56
C57B1/6J mice [2]; TCDD 6.9 μg/kg alone
  ALP: 69.67 ± 8.80 IU/l
  GLU: 96.00 ± 15.15 mg/dL
  GOT: 55.16 ± 6.65 IU/l
  GPT: 21.66 ± 5.39 IU/l
  HDL-C: 39.29 ± 9.38 mg/dL
  LDL-C: 24.43 ± 11.81 mg/dL
  TG: 76.14 ± 14.03 mg/dL
C57B1/6J mice [2]; TCDD 27.5 μg/kg alone
  ALP: 65.4 ± 19.05 IU/l
  GLU: 28.20 ± 8.23 mg/dL
  GOT: 230.40 ± 72.90 IU/l
  GPT: 70.4 ± 23.46 IU/l
  HDL-C: 21.80 ± 6.76 mg/dL
  LDL-C: 43.80 ± 14.99 mg/dL
  TG: 92.67 ± 16.79 mg/dL
C57B1/6J mice [3]; TCDD 6.9 μg/kg alone
  Johnsen's score of the testis tissue: 8.06 ± 0.09
C57B1/6J mice [3]; TCDD 27.5 μg/kg alone
  Johnsen's score of the testis tissue: 7.42 ± 0.11
C57B1/6J mice [4]
  heads of sperms, electron microphotograph: Heads of sperms were frequently observed in cytoplasmic vacuoles of Sertoli cells
